From patent US20100227853A1, “INHIBITORS OF CYCLIC AMP PHOSPHODIESTERASES” (Trustees of Boston College, priority 2008, published 2010)

What was measured:
[1] = biological target: T1, PDE4B3 (Mus musculus, UniProt Q8VBU5); assay: 5FOA growth assay in fission yeast strain expressing PDE4B3; type: cell-based, Murine; conditions: 20 uM
T1 construct: targets used in the assays are full-length proteins (as opposed to simply the catalytic domain); expressed in transfected cells; host or cells: Schizosaccharomyces pombe, PDE gene integrated in place of cgs2
T1 sequence (Q8VBU5 1-721): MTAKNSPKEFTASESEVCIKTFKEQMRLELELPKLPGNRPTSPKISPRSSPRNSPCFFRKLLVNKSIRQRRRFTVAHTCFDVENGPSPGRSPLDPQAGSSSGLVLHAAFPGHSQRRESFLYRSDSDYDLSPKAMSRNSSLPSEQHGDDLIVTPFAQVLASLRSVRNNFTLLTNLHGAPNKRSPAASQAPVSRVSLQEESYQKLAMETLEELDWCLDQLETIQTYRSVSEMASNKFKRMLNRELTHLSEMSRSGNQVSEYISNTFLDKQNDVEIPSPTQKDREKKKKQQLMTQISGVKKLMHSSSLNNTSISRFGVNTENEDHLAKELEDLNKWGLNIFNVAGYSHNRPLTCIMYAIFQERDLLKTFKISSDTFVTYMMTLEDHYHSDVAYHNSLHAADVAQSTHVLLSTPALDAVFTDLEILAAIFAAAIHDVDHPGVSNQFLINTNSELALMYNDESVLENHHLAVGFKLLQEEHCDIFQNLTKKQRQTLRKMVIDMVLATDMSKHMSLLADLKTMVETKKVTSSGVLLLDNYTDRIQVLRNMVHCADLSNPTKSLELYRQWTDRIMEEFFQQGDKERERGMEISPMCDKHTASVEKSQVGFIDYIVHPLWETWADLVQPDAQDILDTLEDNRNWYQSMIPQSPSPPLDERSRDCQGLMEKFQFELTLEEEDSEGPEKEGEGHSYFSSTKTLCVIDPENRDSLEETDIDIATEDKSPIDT
Protocol: (§1) High throughput drug screens were carried out at the Broad Institute's Chemical Biology Program screening facility (Broad Institute, Cambridge, Mass.). Depending upon the strain, cultures were pregrown to exponential phase in EMM complete medium containing from 0.5 to 2.5 mM cAMP to repress fbp1-ura4 transcription. […] Starting cell concentrations ranged from 0.5×10^5 to 4×10^5 cells/ml depending on the screening strain. […] Other positive control dishes contained 5 mM cAMP in the 5FOA medium. Cultures were grown for 48 hours at 30° C., sealed in an airtight container with moist paper towels to prevent evaporation. Optical densities (OD600) of cultures were measured using a microplate reader. Bioinformatic analysis of the results to determine composite Z scores was performed as previously described^30, 31.
(§2) To determine whether the 5FOA growth phenotype could be exploited for high throughput drug screening, strains expressing PDE2A, PDE4A, PDE4B, or PDE8A were pre-grown in EMM medium containing cAMP and then transferred to 5FOA medium in 384 well microtiter plates in the presence or absence of cAMP. OD600 measurements were taken after 48 hours incubation at 30° C.
(§3) Cells were pregrown in EMM medium [MP Biomedicals (Solon, Ohio), 3% glucose, filter-sterilized to avoid carmelization, which would introduce variability into the optical density of the medium] containing from 0 mM to 2.5 mM cAMP (or either 0.5 mM or 1.0 mM cGMP). This was to repress expression of the fbp1-ura4 reporter prior to exposure of cells to 5FOA medium. Cells were grown at 30° C. to exponential phase (approximately 10^7 cells/ml). […] Starting cell concentrations ranged from 0.5×10^5 to 4×10^5 cells/ml depending on the screening strain. […] Other positive control dishes contained 5 mM cAMP in the 5FOA medium for PDEs that lack appropriate control compounds. Cultures were grown for 48 hours at 30° C., sealed in an airtight container with moist paper towels to prevent evaporation. Optical densities (OD600) of cultures were measured using a microplate reader. Bioinformatic analysis of the results to determine composite Z scores was performed as previously described (1, 3).

[2] = test system: PDE4A, PDE4B, PDE4D, PDE7A, PDE7B, PDE8A, PDE3A; assay: Summary of PDE inhibitor profile; set-up: key to PDE inhibitor profile (Table 17): (1): Strong PDE4A, PDE4B inhibitor; (2): Strong PDE4A inhibitor; (3): Strong PDE4B, moderate PDE4A inhibitor; (4): Moderate PDE4A, PDE4B inhibitor; (5): Moderate PDE4B inhibitor; key to inhibitor class, Table 15: (1): Strong PDE4A5 inhibitor; (2): Strong PDE4A, 4B inhibitor; Moderate PDE4D inhibitor; (3): Strong PDE4A. 4B inhibitor; (4): Strong PDE4A, 4B, PDE7A inhibitor: Weak PDE4D inhibitor; conditions: for PDE inhibitor profile (Table 17): overall classification, Table 17 footnotes
[3] = biological target: T2, PDE4A1 (Mus musculus, UniProt O89084); assay: 5FOA growth assay (high throughput screen, ED50) in fission yeast strain expressing PDE4A1; type: cell-based; conditions: 20 uM; PDE 4A1
T2 construct: targets used in the assays are full-length proteins (as opposed to simply the catalytic domain); expressed in transfected cells; host or cells: Schizosaccharomyces pombe, PDE gene integrated in place of cgs2
T2 sequence (O89084 1-610 isoform O89084-2): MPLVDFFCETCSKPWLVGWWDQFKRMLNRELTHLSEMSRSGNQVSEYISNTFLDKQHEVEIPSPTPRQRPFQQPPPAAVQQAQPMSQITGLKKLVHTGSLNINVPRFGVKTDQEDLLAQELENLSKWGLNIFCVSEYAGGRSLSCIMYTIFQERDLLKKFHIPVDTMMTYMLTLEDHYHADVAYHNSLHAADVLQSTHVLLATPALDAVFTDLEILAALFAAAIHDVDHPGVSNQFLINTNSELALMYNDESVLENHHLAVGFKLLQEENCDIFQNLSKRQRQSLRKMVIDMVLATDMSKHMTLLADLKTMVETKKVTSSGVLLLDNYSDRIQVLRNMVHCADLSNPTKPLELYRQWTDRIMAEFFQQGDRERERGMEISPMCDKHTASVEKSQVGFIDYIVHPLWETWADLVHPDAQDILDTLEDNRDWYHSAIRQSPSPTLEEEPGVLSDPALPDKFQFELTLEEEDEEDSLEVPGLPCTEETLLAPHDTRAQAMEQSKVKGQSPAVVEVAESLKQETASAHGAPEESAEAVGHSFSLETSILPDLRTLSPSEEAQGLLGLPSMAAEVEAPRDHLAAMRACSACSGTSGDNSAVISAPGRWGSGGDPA
Protocol: as §1, §2, §3

[4] = biological target: T3, PDE4A5 (Rattus norvegicus, UniProt P54748); assay: 5FOA growth assay in fission yeast strain expressing PDE4A5; type: cell-based; conditions: 20 uM
T3 construct: targets used in the assays are full-length proteins (as opposed to simply the catalytic domain); expressed in transfected cells; host or cells: Schizosaccharomyces pombe, PDE gene integrated in place of cgs2
T3 sequence (P54748 1-844): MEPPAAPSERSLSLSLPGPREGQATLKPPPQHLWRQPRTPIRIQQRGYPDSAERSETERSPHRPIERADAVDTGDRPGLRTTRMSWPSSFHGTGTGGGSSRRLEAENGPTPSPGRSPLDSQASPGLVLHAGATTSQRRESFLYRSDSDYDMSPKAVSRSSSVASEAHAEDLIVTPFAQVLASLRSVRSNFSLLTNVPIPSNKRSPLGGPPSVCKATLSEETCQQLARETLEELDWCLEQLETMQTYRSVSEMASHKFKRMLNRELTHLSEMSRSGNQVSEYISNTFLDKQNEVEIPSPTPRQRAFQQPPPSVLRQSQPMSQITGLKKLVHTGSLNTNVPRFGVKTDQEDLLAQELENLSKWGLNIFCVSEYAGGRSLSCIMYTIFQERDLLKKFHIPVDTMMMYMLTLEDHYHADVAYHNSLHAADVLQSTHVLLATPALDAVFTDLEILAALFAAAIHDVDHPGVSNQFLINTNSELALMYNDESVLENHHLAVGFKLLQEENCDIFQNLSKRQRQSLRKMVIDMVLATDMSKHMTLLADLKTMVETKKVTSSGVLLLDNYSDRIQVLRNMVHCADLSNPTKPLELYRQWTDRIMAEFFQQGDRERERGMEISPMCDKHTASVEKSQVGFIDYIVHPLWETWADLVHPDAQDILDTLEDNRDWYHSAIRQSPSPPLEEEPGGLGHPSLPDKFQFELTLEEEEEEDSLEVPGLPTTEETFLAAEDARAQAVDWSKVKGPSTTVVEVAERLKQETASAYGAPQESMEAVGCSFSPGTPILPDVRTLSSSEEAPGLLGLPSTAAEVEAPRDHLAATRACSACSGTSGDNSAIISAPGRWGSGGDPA
Protocol: High throughput drug screens were carried out at the Broad Institute's Chemical Biology Program screening facility (Broad Institute, Cambridge, Mass.). Depending upon the strain, cultures were pregrown to exponential phase in EMM complete medium containing from 0.5 to 2.5 mM cAMP to repress fbp1-ura4 transcription. Cells were collected by centrifugation, resuspended in 5FOA medium, and 25 μl were transferred to 384-well microtiter dishes (untreated, with flat clear bottoms) that had been pre-filled with 25 μl 5FOA medium and pre-pinned with 100 nl of compounds (stock solutions were generally 10 mM) from a subset of the Prestwick Bioactive and the Microsource Spectrum compound libraries. Starting cell concentrations ranged from 0.5×10^5 to 4×10^5 cells/ml depending on the screening strain. […] Other positive control dishes contained 5 mM cAMP in the 5FOA medium. Cultures were grown for 48 hours at 30° C., sealed in an airtight container with moist paper towels to prevent evaporation. Optical densities (OD600) of cultures were measured using a microplate reader. Bioinformatic analysis of the results to determine composite Z scores was performed as previously described^30, 31.
Cells were pregrown in EMM medium [MP Biomedicals (Solon, Ohio), 3% glucose, filter-sterilized to avoid carmelization, which would introduce variability into the optical density of the medium] containing from 0 mM to 2.5 mM cAMP (or either 0.5 mM or 1.0 mM cGMP). This was to repress expression of the fbp1-ura4 reporter prior to exposure of cells to 5FOA medium. Cells were grown at 30° C. to exponential phase (approximately 10^7 cells/ml). Cells were collected by centrifugation and resuspended in 5FOA medium, and 25 μl were transferred to 384-well microtiter dishes (untreated, with flat clear bottoms) that had been pre-filled with 25 μl 5FOA medium and pre-pinned with 100 nl of compounds (stock solutions were generally 10 mM). Starting cell concentrations ranged from 0.5×10^5 to 4×10^5 cells/ml depending on the screening strain. […] Other positive control dishes contained 5 mM cAMP in the 5FOA medium for PDEs that lack appropriate control compounds. Cultures were grown for 48 hours at 30° C., sealed in an airtight container with moist paper towels to prevent evaporation. Optical densities (OD600) of cultures were measured using a microplate reader. Bioinformatic analysis of the results to determine composite Z scores was performed as previously described (1, 3).

Row | 1 Assay (20 uM) 4B3 ([1]; PDE 4B3) [ND ND ND ND] | 1 Assay (20 uM) 4A1 [3] [ND ND ND ND] | Compound | PDE inhibitor profile (Table 17) [2] | inhibitor class, Table 15 [2] | also measured
1 | 86.04 | 40.53 | CC(C)Cn1c2ccccc2c2nc3ccccc3nc21 [1422, M02] | 1422, M02 (2) |  | 
2 |  |  | COC(=O)C1=C(C)N(c2cccc(C)c2)C(=O)/C1=C\c1cccs1 [Compound 27-5] |  | 27-5 (2) | 
3 |  |  | COC(=O)C1=CN(Cc2ccccc2)C(=O)/C1=C\c1cccs1 [Compound 27-4] |  | 27-4 (1) | 
4 |  |  | COC(=O)C1=C(C)N(CC(C)C)C(=O)/C1=C\c1cccs1 [Compound 27-3] |  | 27-3 (1) | 
5 |  |  | COC(=O)C1=C(C)N(C)C(=O)/C1=C\c1cccs1 [Compound 27-1] |  | 27-1 (1) | 
6 |  |  | COC(=O)C1=C(C)N(c2ccccc2Cl)C(=O)/C1=C\c1cccs1 [Compound 27-8] |  | 27-8 (2) | 
7 |  |  | COC(=O)C1=C(C)N(c2ccc(F)cc2)C(=O)/C1=C\c1cccs1 [Compound 27-6] |  | 27-6 (4) | 
8 | 115.27 | 72.21 | CCCn1c2ccccc2c2nc3ccccc3nc21 [1422, K02] | 1422, K02 (1) |  | 
9 | 103.69 | 70.89 | CCn1c2ccccc2c2nc3ccccc3nc21 [1422, G02] | 1422, G02 (1) |  | 
10 | 41.77 | 29.15 | O=C(O)Cn1c2ccc(Cl)cc2c2nc3ccccc3nc21 [1429, L06] | 1429, L06 (4) |  | 
11 |  |  | COC(=O)C1=C(C)N(CC(C)C)C(=O)/C1=C\c1ccco1 [Compound 27-2] |  | 27-2 (2) | 
12 |  |  | COC(=O)c1sc(SC)c(C#N)c1-c1ccco1 [2055, C21] |  |  | 1 Assay (20 uM) 4B3 [1]: 21.4955 ND ND ND ND; 1 Assay (20 uM) 4A5 [4]: 2.07 ND ND ND ND
13 |  |  | CCOC(=O)c1sc2sc(C(=O)OCC)c(-c3ccc(Cl)cc3)c2c1N [2055, N01] |  |  | 1 Assay (20 uM) 4B3 [1]: 1.8421 ND ND ND ND; 1 Assay (20 uM) 4A5 [4]: 0.582 ND ND ND ND
14 |  |  | COC(=O)C1=C(C)N(c2cccc(C(F)(F)F)c2)C(=O)/C1=C\c1cccs1 [Compound 27-7] |  | 27-7 (3) | 
15 | 99.04 | 56.62 | CC(C)n1c2ccccc2c2nc3ccccc3nc21 [1422, I02] | 1422, I02 (1) |  | 
16 | 103.46 | 31.38 | C=CCn1c2ccccc2c2nc3ccccc3nc21 [1427, P20] | 1427, P20 (3) |  | 
